Assay results taken from ChEMBL document CHEMBL1201862, “PubChem BioAssay data set” (2004).
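Where inhibition never reached the appropriate level, the endpoint shown equals the highest concentration tested. Otherwise, values were interpolated linearly from a five-concentration, 48-hour dose response in 96-well plates. Abbreviation: GI50, concentration required for 50% inhibition of growth.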 The source made the active and inactive calls. Rule as the data show it: active = GI50 up to about 1.1 µM and inactive = higher.

Assays:
Test in all cases: NCI anticancer screen, dose series, 48 h
OVCAR-8 = test system: OVCAR-8
LOX IMVI = test system: LOX IMVI
MOLT-4 = test system: MOLT-4
TK-10 = test system: TK-10
OVCAR-4 = test system: OVCAR-4
IGROV-1 = test system: IGROV-1
M14 = test system: M14
SR = test system: SR
UACC-62 = test system: UACC-62
NCI-H23 = test system: NCI-H23
SF-539 = test system: SF-539
HCT-116 = test system: HCT-116
K562 = test system: K562
NCI-H460 = test system: NCI-H460
CAKI-1 = test system: CAKI-1
SK-MEL-2 = test system: SK-MEL-2

Row | Structure (SMILES) | GI50 (OVCAR-8) | GI50 (LOX IMVI) | GI50 (MOLT-4) | GI50 (TK-10) | GI50 (OVCAR-4) | GI50 (IGROV-1) | GI50 (M14) | GI50 (SR) | GI50 (UACC-62) | GI50 (NCI-H23) | GI50 (SF-539) | GI50 (HCT-116) | GI50 (K562) | GI50 (NCI-H460) | GI50 (CAKI-1) | GI50 (SK-MEL-2)
1 | CN(C)CCNC(=O)Cc1ccccc1Nc1c(Cl)cccc1Cl | 18.9 µM (inactive) | 13.6 µM (inactive) | 16 µM (inactive) | 13.7 µM (inactive) | 20.1 µM (inactive) | 19.1 µM (inactive) | 17.3 µM (inactive) | 15.2 µM (inactive) | 18.3 µM (inactive) | 18.4 µM (inactive) | 16.5 µM (inactive) | 17.2 µM (inactive) | 15.3 µM (inactive) | 10 µM (inactive) | – | –
2 | CN1C(=O)C(=O)N2c3ccc(Cl)cc3C3(c4ccccc4)N=CC12O3 (stereo not drawn) | 3.13 µM (inactive) | 1.53 µM (inactive) | 3.07 µM (inactive) | 5.45 µM (inactive) | 2.11 µM (inactive) | 7.28 µM (inactive) | 3.21 µM (inactive) | – | 3.94 µM (inactive) | 4.13 µM (inactive) | 3.27 µM (inactive) | 3.9 µM (inactive) | 3.45 µM (inactive) | 6.03 µM (inactive) | 5.13 µM (inactive) | 6.01 µM (inactive)
3 | Cc1ccc(NC(=O)CCC(=O)C(C#N)c2ccc(Cl)cc2)cc1C (stereo not drawn) | > 100 µM (inactive) | > 100 µM (inactive) | > 100 µM (inactive) | > 100 µM (inactive) | > 100 µM (inactive) | > 100 µM (inactive) | > 100 µM (inactive) | – | > 100 µM (inactive) | > 100 µM (inactive) | > 100 µM (inactive) | > 100 µM (inactive) | > 100 µM (inactive) | > 100 µM (inactive) | > 100 µM (inactive) | > 100 µM (inactive)
4 | O=c1[nH]cc(C(F)(C(F)(F)F)C(F)(F)F)c(=O)[nH]1 | > 100 µM (inactive) | > 100 µM (inactive) | > 100 µM (inactive) | > 100 µM (inactive) | > 100 µM (inactive) | > 100 µM (inactive) | > 100 µM (inactive) | – | > 100 µM (inactive) | > 100 µM (inactive) | > 100 µM (inactive) | > 100 µM (inactive) | > 100 µM (inactive) | > 100 µM (inactive) | > 100 µM (inactive) | > 100 µM (inactive)
5 | COc1ccc(Cc2nc3ccccc3s2)cc1OC | 16.9 µM (inactive) | – | 20.2 µM (inactive) | 36.2 µM (inactive) | 16.4 µM (inactive) | 18.9 µM (inactive) | 17.5 µM (inactive) | 18.9 µM (inactive) | 17.3 µM (inactive) | 18.1 µM (inactive) | 17.3 µM (inactive) | 15.8 µM (inactive) | 20.3 µM (inactive) | 19.7 µM (inactive) | 15.5 µM (inactive) | 20.3 µM (inactive)
6 | CN(C)/C(F)=P\C(F)(F)F (stereo not drawn) | > 100 µM (inactive) | > 100 µM (inactive) | > 100 µM (inactive) | > 100 µM (inactive) | > 100 µM (inactive) | > 100 µM (inactive) | > 100 µM (inactive) | – | > 100 µM (inactive) | > 100 µM (inactive) | > 100 µM (inactive) | > 100 µM (inactive) | > 100 µM (inactive) | > 100 µM (inactive) | > 100 µM (inactive) | > 100 µM (inactive)
7 | COC(=O)C1CC/C(=N/c2ccc(C)cc2C)N1 (stereo not drawn) | > 100 µM (inactive) | > 100 µM (inactive) | > 100 µM (inactive) | > 100 µM (inactive) | > 100 µM (inactive) | > 100 µM (inactive) | > 100 µM (inactive) | – | > 100 µM (inactive) | > 100 µM (inactive) | – | > 100 µM (inactive) | > 100 µM (inactive) | > 100 µM (inactive) | > 100 µM (inactive) | > 100 µM (inactive)
8 | CCCCCCCCCCCCCCCC(=O)OCCOCCOCCOCCOCCOC(=O)CCCCCCCCCCCCCCC | > 100 µM (inactive) | > 100 µM (inactive) | > 100 µM (inactive) | > 100 µM (inactive) | > 100 µM (inactive) | > 100 µM (inactive) | > 100 µM (inactive) | > 100 µM (inactive) | > 100 µM (inactive) | > 100 µM (inactive) | – | > 100 µM (inactive) | > 100 µM (inactive) | > 100 µM (inactive) | > 100 µM (inactive) | > 100 µM (inactive)
9 | C[C@@H]1C(=O)CC2C(C)(C)CCC[C@]2(C)[C@@]12CC[C@]1(C=COC1)O2 (stereo partly drawn) | 27.9 µM (inactive) | 33.4 µM (inactive) | 16 µM (inactive) | – | 43.8 µM (inactive) | 36.9 µM (inactive) | 29.4 µM (inactive) | 22 µM (inactive) | 35.4 µM (inactive) | – | 39.5 µM (inactive) | 30.2 µM (inactive) | 24.3 µM (inactive) | 32.8 µM (inactive) | 64.3 µM (inactive) | 22.7 µM (inactive)
10 | COC(=O)c1c[nH]cc1CCc1c[nH]cc1C(=O)OC | > 100 µM (inactive) | > 100 µM (inactive) | > 100 µM (inactive) | > 100 µM (inactive) | > 100 µM (inactive) | > 100 µM (inactive) | – | > 100 µM (inactive) | – | > 100 µM (inactive) | > 100 µM (inactive) | > 100 µM (inactive) | > 100 µM (inactive) | > 100 µM (inactive) | > 100 µM (inactive) | > 100 µM (inactive)
11 | NS(=O)(=O)c1cc2c(cc1Cl)NC(C(=O)NNC(=O)c1ccncc1)=NS2(=O)=O | > 100 µM (inactive) | > 100 µM (inactive) | > 100 µM (inactive) | > 100 µM (inactive) | > 100 µM (inactive) | > 100 µM (inactive) | > 100 µM (inactive) | > 100 µM (inactive) | > 100 µM (inactive) | > 100 µM (inactive) | > 100 µM (inactive) | > 100 µM (inactive) | – | > 100 µM (inactive) | > 100 µM (inactive) | > 100 µM (inactive)
12 | CC1=C(C(=O)Nc2ccc([N+](=O)[O-])cc2)C(c2ccc3c(c2)OCO3)C(C(=O)Nc2ccc([N+](=O)[O-])cc2)=C(C)N1 | 3.16 µM (inactive) | – | 0.321 µM (active) | – | 10.6 µM (inactive) | 8.41 µM (inactive) | 6.78 µM (inactive) | 1.98 µM (inactive) | 5.21 µM (inactive) | 5.78 µM (inactive) | 27.7 µM (inactive) | 10.1 µM (inactive) | 4.15 µM (inactive) | 10 µM (inactive) | 23.7 µM (inactive) | 6.68 µM (inactive)
13 | O=c1[nH]c(-c2ccccc2)nc2cc(Cl)ccc12 | > 100 µM (inactive) | – | > 100 µM (inactive) | > 100 µM (inactive) | > 100 µM (inactive) | > 100 µM (inactive) | > 100 µM (inactive) | – | > 100 µM (inactive) | > 100 µM (inactive) | > 100 µM (inactive) | > 100 µM (inactive) | > 100 µM (inactive) | > 100 µM (inactive) | > 100 µM (inactive) | > 100 µM (inactive)
14 | CC(C)NCC(O)COC(=O)c1cccs1 (stereo not drawn) | > 100 µM (inactive) | > 100 µM (inactive) | > 100 µM (inactive) | > 100 µM (inactive) | > 100 µM (inactive) | > 100 µM (inactive) | > 100 µM (inactive) | – | > 100 µM (inactive) | > 100 µM (inactive) | – | – | > 100 µM (inactive) | > 100 µM (inactive) | > 100 µM (inactive) | > 100 µM (inactive)
15 | Cc1cc(=O)oc2cc(OCCCOc3ccc4c(C)cc(=O)oc4c3)ccc12 | > 100 µM (inactive) | > 100 µM (inactive) | > 100 µM (inactive) | > 100 µM (inactive) | > 100 µM (inactive) | > 100 µM (inactive) | > 100 µM (inactive) | > 100 µM (inactive) | > 100 µM (inactive) | > 100 µM (inactive) | > 100 µM (inactive) | > 100 µM (inactive) | > 100 µM (inactive) | > 100 µM (inactive) | – | > 100 µM (inactive)
16 | COc1ccc(O)c(C#N)c1C#N | > 100 µM (inactive) | < 0.01 µM (active) | > 100 µM (inactive) | > 100 µM (inactive) | > 100 µM (inactive) | > 100 µM (inactive) | > 100 µM (inactive) | – | > 100 µM (inactive) | > 100 µM (inactive) | > 100 µM (inactive) | > 100 µM (inactive) | > 100 µM (inactive) | > 100 µM (inactive) | > 100 µM (inactive) | > 100 µM (inactive)
17 | Cn1nc(-c2ccccc2)c(C(=O)/C=C/c2ccc(F)cc2)c(N2CCCCC2)c1=O | 5.81 µM (inactive) | 3.5 µM (inactive) | 2.63 µM (inactive) | 17.8 µM (inactive) | – | 11.5 µM (inactive) | 5.93 µM (inactive) | – | 6.27 µM (inactive) | 4.19 µM (inactive) | 4.54 µM (inactive) | 3.31 µM (inactive) | 3.39 µM (inactive) | 4.83 µM (inactive) | 8.75 µM (inactive) | –
18 | O=C(CCn1[nH]c(=O)c(Cl)c(Cl)c1=O)NNC(=O)C[n+]1ccccc1 | > 100 µM (inactive) | > 100 µM (inactive) | > 100 µM (inactive) | > 100 µM (inactive) | > 100 µM (inactive) | > 100 µM (inactive) | > 100 µM (inactive) | – | > 100 µM (inactive) | > 100 µM (inactive) | > 100 µM (inactive) | – | > 100 µM (inactive) | > 100 µM (inactive) | > 100 µM (inactive) | > 100 µM (inactive)
19 | O=C(O)CN(c1ccccc1)S(=O)(=O)c1ccc(NC(=O)c2ccccc2)cc1 | > 100 µM (inactive) | > 100 µM (inactive) | > 100 µM (inactive) | > 100 µM (inactive) | > 100 µM (inactive) | > 100 µM (inactive) | > 100 µM (inactive) | – | > 100 µM (inactive) | > 100 µM (inactive) | > 100 µM (inactive) | – | > 100 µM (inactive) | > 100 µM (inactive) | > 100 µM (inactive) | > 100 µM (inactive)
